Molecules are shown by their SMILES. ≈ marks a conversion by molar mass, not a printed value. A value given as a limit tells only on which side of the number the result lay.

The values below come from ChEMBL document CHEMBL1158822, “Anthrabenzoxocinones from Streptomyces sp. as liver X receptor ligands and antibacterial agents” (J Nat Prod, 2005).

Test [1] has as its target T1, Oxysterols receptor LXR-beta (Homo sapiens, UniProt P55055).
T1 sequence (P55055 whole entry): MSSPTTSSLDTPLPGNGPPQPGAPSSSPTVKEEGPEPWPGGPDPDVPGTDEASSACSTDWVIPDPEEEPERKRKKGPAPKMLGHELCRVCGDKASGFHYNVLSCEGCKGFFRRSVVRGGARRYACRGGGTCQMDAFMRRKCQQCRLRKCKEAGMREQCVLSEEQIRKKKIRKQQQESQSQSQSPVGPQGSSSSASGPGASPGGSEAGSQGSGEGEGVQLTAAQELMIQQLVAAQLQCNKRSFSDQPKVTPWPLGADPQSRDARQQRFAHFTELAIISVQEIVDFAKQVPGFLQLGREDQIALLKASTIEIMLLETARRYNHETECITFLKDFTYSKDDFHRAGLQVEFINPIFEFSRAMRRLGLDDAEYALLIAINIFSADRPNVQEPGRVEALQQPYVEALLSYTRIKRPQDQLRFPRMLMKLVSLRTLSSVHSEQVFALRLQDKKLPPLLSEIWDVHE
Description: Displacement of [3H2]F3-methyl AA from LXRbeta by scintillation proximity assay. A general note: Scintillation proximity formats need no separation of bound from free tracer.

The subject of test [2] is Staphylococcus aureus. Description: Inhibition of DNA biosynthesis in Staphylococcus aureus.
A further test relates to Streptococcus pneumoniae. Description: Antibacterial activity against Streptococcus pneumoniae MB212. It counts as functional.
In test [3] the test system is Staphylococcus aureus. Kind of test: Antibacterial activity against methicillin-resistant Staphylococcus aureus COL MB5393. It counts as functional.
The subject of test [4] is Staphylococcus aureus. Kind of test: Antibacterial activity against methicillin-sensitive Staphylococcus aureus MB2685. The format is functional.
Test [5] has as its system Staphylococcus aureus. Description: Inhibition of type II fatty acid synthesis in Staphylococcus aureus using n-octanoyl-CoA and [14C]malonyl CoA substrate.
The next test has as its system Escherichia coli. Description: Antibacterial activity against lpxC mutant gene expressing Escherichia coli MB4902. It counts as functional.
A further test has as its system Enterococcus faecium. Kind of test: Antibacterial activity against vancomycin-resistant Enterococcus faecium CL5791. It counts as functional.
In test [6] the target is T2, Oxysterols receptor LXR-alpha (Homo sapiens, UniProt Q13133).
T2 sequence (Q13133 whole entry): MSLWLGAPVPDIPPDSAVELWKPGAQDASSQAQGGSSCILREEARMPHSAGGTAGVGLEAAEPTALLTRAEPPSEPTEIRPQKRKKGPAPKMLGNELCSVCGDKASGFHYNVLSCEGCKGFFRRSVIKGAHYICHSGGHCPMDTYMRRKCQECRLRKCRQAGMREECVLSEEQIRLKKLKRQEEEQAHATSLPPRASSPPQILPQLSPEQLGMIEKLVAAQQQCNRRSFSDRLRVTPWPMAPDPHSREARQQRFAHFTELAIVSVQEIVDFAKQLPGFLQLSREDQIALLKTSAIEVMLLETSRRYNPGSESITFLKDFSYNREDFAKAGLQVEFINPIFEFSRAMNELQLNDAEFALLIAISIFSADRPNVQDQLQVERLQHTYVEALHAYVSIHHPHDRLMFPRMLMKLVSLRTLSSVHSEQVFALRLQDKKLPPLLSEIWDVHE
Description: Displacement of [3H2]F3-methyl AA from LXRalpha by scintillation proximity assay.

Test [7] deals with Staphylococcus aureus. Description: Inhibition of phospholipid biosynthesis in Staphylococcus aureus.
In the next test the test system is Enterococcus faecalis. Description: Antibacterial activity against vancomycin-sensitive Enterococcus faecalis CL8516. It counts as functional.
For test [8], the system named is Staphylococcus aureus. Description: Inhibition of RNA biosynthesis in Staphylococcus aureus.
Test [9] relates to Staphylococcus aureus. Kind of test: Inhibition of protein biosynthesis in Staphylococcus aureus.

Regarding `COc1cc(C)c2c(c1)O[C@@]1(C)Cc3cc4c(c(O)c3[C@@H]2O1)C(=O)c1c(O)c(Cl)c(O)c(Cl)c1C4(C)C`, the IC50 (commonly the concentration that inhibits the measured activity by half) in test [1] was greater than 15 µM; in the test with Staphylococcus aureus [2] it was 0.21 µg/mL (≈ 0.386 µM); with Staphylococcus aureus [5], 11.4 µg/mL (≈ 21 µM); in [6] it was 10 µM; in the test on Staphylococcus aureus [7], 0.21 µg/mL (≈ 0.386 µM); in the test on Staphylococcus aureus [8], 0.21 µg/mL (≈ 0.386 µM). In the test with Staphylococcus aureus [9], this molecule showed a half-inhibitory concentration (IC50) of 0.21 µg/mL (≈ 0.386 µM). In addition, the MIC (commonly the least concentration at which growth counts as inhibited) turned out to be 1 µg/mL (≈ 1.84 µM) in the test with Streptococcus pneumoniae; 1 µg/mL (≈ 1.84 µM) against Staphylococcus aureus [3]; 0.5 µg/mL (≈ 0.92 µM) against Staphylococcus aureus [4]; 0.5 µg/mL (≈ 0.92 µM) against Escherichia coli; 2 µg/mL (≈ 3.68 µM) in the test on Enterococcus faecium; 1 µg/mL (≈ 1.84 µM) in the test on Enterococcus faecalis.

In the case of `Cc1cc(O)cc2c1[C@H]1O[C@](C)(Cc3cc4c(c(O)c31)C(=O)c1c(O)cc(O)cc1C4(C)C)O2`, the IC50 with Staphylococcus aureus [2] turned out to be 1 µg/mL (≈ 2.17 µM); in the test on Staphylococcus aureus [5], 288 µg/mL (≈ 625 µM); with Staphylococcus aureus [7], 1 µg/mL (≈ 2.17 µM); in the test on Staphylococcus aureus [8], 1 µg/mL (≈ 2.17 µM); in the test with Staphylococcus aureus [9] it was 1 µg/mL (≈ 2.17 µM). Also, the MIC stood at 1 µg/mL (≈ 2.17 µM) against Streptococcus pneumoniae; 2 µg/mL (≈ 4.34 µM) against Staphylococcus aureus [3]; 2 µg/mL (≈ 4.34 µM) against Staphylococcus aureus [4]; 2 µg/mL (≈ 4.34 µM) in the test with Escherichia coli; 2 µg/mL (≈ 4.34 µM) in the test with Enterococcus faecium; 0.5 µg/mL (≈ 1.09 µM) with Enterococcus faecalis.

For `Cc1cc(O)cc2c1[C@@H]1O[C@@](C)(Cc3cc4c(c(O)c31)C(=O)c1c(O)cc(O)cc1C4(C)C)O2`, the MIC came to 1 µg/mL (≈ 2.17 µM) in the test on Streptococcus pneumoniae; 0.5 µg/mL (≈ 1.09 µM) in the test with Staphylococcus aureus [3]; 1 µg/mL (≈ 2.17 µM) against Staphylococcus aureus [4]; 1 µg/mL (≈ 2.17 µM) in the test on Escherichia coli; 0.5 µg/mL (≈ 1.09 µM) against Enterococcus faecium; 1 µg/mL (≈ 2.17 µM) in the test on Enterococcus faecalis. Besides, in the test with Staphylococcus aureus [5], half-maximal inhibition (IC50) was put at 245 µg/mL (≈ 532 µM).

On to `O=C(N[C@H](CO)[C@H](O)c1ccc([N+](=O)[O-])cc1)C(Cl)Cl` [CHLORAMPHENICOL], for which the MIC is 1.56 µg/mL (≈ 4.83 µM) in the test with Streptococcus pneumoniae; 6.25 µg/mL (≈ 19.3 µM) against Staphylococcus aureus [3]; 6.25 µg/mL (≈ 19.3 µM) against Staphylococcus aureus [4]; 1.56 µg/mL (≈ 4.83 µM) against Escherichia coli; 6.25 µg/mL (≈ 19.3 µM) in the test with Enterococcus faecium; 1.56 µg/mL (≈ 4.83 µM) in the test on Enterococcus faecalis. This molecule gave an IC50 with Staphylococcus aureus [5] greater than 250 µg/mL.

In the case of `CO[C@H]1/C=C/O[C@@]2(C)Oc3c(C)c(O)c4c(O)c(c(/C=N/N5CCN(C)CC5)c(O)c4c3C2=O)NC(=O)/C(C)=C\C=C\[C@H](C)[C@H](O)[C@@H](C)[C@@H](O)[C@@H](C)[C@H](OC(C)=O)[C@@H]1C` [RIFAMPIN], the MIC with Streptococcus pneumoniae turned out to be 0.004 µg/mL (≈ 0.00486 µM); against Staphylococcus aureus [3], 0.002 µg/mL (≈ 0.00243 µM); with Staphylococcus aureus [4] it was 0.002 µg/mL (≈ 0.00243 µM); with Escherichia coli, 0.02 µg/mL (≈ 0.0243 µM); in the test with Enterococcus faecium, 0.04 µg/mL (≈ 0.0486 µM); in the test on Enterococcus faecalis it was 0.008 µg/mL (≈ 0.00972 µM). The molecule also showed an IC50 in the test on Staphylococcus aureus [5] greater than 250 µg/mL.
